As a reminder, the logD is lipophilicity at a set pH, counting ionised and neutral species. A low value points to a more hydrophilic compound. By solubility is commonly meant the concentration that dissolves in the medium under given conditions. A low value points to a poorly soluble substance. The pIC50 is the negative decadic logarithm of the IC50, by convention in mol/L. Lower therefore signals a large IC50. A word on the IC50: it is the concentration that inhibits the measured activity by half. What is called logP is the decadic logarithm of the partition coefficient of the neutral form, usually between octanol and water. Read a low logP as lower lipophilicity. Usually half-life stands for how long it takes for the measured level to halve. High values mean slow decline, low ones rapid decline. A word on the bioavailability: it is the share of a dose that reaches the circulation, judged against a reference dose that is usually intravenous. A low value points to little systemic uptake.

The text below walks through data of ChEMBL document CHEMBL4130457, “Discovery of AZD-2098 and AZD-1678, Two Potent and Bioavailable CCR4 Receptor Antagonists” (ACS Med Chem Lett, 2017).

Data set [1] can be described thus: Protein binding in human plasma. Format: ADME, cell-free. Conditions: read-out: PPB (converted).
The nature of data set [2]: Lipophilicity, log D of the compound. Type of data set: physicochemical. The note with it: octanol/water.
A short description of data set [3]: Solubility of the compound. Type of data set: physicochemical.
Another data set has as its system Hepatocyte. The data set can be described thus: Stability in human hepatocytes assessed per million cells.
A short description of data set [4]: Antagonist activity at rat CCR4.
The target of data set [5] is T1, C-C chemokine receptor type 4 (Mus musculus, UniProt P51680).
T1 sequence (P51680 whole entry): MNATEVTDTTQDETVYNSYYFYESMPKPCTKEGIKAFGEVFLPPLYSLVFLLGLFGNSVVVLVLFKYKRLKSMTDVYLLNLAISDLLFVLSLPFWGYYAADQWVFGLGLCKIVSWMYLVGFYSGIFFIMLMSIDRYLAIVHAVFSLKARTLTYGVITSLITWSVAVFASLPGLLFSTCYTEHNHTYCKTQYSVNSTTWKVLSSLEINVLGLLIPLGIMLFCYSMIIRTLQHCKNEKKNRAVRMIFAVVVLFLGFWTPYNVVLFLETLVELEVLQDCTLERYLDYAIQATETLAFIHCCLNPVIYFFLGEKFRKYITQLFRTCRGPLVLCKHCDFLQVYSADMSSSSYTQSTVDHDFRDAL
The data set can be described thus: Antagonist activity at mouse CCR4. Format: functional.

Data set [6] addresses T2, C-C chemokine receptor type 4 (Homo sapiens, UniProt P51679).
T2 sequence (P51679 whole entry): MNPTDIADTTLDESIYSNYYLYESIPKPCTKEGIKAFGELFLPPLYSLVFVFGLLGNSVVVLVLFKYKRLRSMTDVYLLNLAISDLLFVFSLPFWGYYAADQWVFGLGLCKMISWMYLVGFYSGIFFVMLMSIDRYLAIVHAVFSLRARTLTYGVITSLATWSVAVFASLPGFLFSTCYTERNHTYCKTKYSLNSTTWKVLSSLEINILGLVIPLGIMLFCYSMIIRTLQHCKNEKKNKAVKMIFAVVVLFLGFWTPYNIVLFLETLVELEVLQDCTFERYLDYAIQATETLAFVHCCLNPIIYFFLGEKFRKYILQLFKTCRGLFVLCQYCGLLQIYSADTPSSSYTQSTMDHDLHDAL
Briefly: Antagonist activity at recombinant human CCR4 expressed in CHO-K1 cells assessed as inhibition of CCL22 induced Ca2+ mobilization after 2 hrs by FMAT based fluorescence assay. Type of data set: functional, cell-based. Background: Calcium assays in cells follow changes in intracellular calcium, usually with a dye or a luminescent sensor.

Data set [7] addresses T3, C-X-C chemokine receptor type 1 (Homo sapiens) (UniProt P25024).
T3 sequence (whole entry): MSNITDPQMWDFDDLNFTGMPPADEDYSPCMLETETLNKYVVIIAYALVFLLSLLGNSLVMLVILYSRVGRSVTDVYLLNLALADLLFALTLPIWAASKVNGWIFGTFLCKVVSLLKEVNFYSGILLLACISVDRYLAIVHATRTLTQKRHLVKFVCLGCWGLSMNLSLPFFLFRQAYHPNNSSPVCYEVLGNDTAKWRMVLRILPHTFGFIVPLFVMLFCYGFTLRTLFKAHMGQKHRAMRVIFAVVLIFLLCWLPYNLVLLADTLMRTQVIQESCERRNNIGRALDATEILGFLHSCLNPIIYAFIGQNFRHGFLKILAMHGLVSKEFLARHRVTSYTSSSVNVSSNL
The data set can be described thus: Antagonist activity at CXCR1 (unknown origin) at 10 uM. Type of data set: functional.

Data set [8] deals with T4, C-X-C chemokine receptor type 2 (Homo sapiens) (UniProt P25025).
T4 sequence (whole entry): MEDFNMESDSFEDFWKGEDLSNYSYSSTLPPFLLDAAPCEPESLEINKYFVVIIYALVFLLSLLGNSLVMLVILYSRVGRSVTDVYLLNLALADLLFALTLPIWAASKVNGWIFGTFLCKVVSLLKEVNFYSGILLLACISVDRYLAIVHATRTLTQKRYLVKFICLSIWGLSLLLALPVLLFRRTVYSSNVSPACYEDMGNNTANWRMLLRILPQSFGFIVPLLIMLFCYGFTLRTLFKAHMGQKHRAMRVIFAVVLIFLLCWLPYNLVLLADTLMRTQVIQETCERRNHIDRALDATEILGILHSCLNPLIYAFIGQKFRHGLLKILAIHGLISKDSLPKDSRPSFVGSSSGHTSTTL
Briefly: Antagonist activity at CXCR2 (unknown origin) at 10 uM. Type of data set: functional.

Data set [9] concerns the target T5, C-C chemokine receptor type 1 (Homo sapiens) (UniProt P32246).
T5 sequence (whole entry): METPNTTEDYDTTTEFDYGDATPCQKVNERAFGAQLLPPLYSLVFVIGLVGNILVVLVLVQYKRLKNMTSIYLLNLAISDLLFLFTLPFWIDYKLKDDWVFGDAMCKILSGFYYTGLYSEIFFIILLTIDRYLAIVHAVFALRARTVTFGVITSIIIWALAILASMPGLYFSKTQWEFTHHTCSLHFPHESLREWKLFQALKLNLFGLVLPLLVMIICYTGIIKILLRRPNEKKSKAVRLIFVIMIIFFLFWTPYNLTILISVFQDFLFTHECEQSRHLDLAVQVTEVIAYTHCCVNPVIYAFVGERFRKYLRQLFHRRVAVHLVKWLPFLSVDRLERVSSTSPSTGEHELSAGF
The data set can be described thus: Antagonist activity at CCR1 (unknown origin) at 10 uM. Type of data set: functional.

Data set [10] addresses C-C chemokine receptor type 2 (Homo sapiens) (UniProt P41597). The data set can be described thus: Antagonist activity at CCR2b (unknown origin) at 10 uM.
Data set [11] has as its target C-C chemokine receptor type 5 (Homo sapiens) (UniProt P51681). Briefly: Antagonist activity at CCR5 (unknown origin) at 10 uM. Format: functional.
Data set [12] deals with T6, C-C chemokine receptor type 7 (Homo sapiens) (UniProt P32248).
T6 sequence (whole entry): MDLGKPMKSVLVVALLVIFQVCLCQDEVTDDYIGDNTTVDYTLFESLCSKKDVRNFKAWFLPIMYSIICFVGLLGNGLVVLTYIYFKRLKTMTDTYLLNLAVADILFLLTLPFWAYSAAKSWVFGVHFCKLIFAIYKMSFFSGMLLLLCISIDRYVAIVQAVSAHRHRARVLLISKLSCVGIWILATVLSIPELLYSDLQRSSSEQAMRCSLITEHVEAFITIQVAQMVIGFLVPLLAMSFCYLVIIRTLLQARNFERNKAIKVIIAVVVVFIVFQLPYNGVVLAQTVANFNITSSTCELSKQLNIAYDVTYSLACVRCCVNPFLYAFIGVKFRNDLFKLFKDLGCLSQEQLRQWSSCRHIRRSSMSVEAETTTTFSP
The data set can be described thus: Antagonist activity at CCR7 (unknown origin) at 10 uM. Type of data set: functional.

Data set [13] concerns the target C-C chemokine receptor type 8 (Homo sapiens) (UniProt P51685). Briefly: Antagonist activity at CCR8 (unknown origin) at 10 uM. Type of data set: functional.
Data set [14] can be described thus: Lipophilicity, log P of the compound. Type of data set: physicochemical. The note with it: octanol/water.
In data set [15] the target is T7, C-C chemokine receptor type 4 (Canis lupus familiaris, UniProt Q8MJW8).
T7 sequence (Q8MJW8 whole entry): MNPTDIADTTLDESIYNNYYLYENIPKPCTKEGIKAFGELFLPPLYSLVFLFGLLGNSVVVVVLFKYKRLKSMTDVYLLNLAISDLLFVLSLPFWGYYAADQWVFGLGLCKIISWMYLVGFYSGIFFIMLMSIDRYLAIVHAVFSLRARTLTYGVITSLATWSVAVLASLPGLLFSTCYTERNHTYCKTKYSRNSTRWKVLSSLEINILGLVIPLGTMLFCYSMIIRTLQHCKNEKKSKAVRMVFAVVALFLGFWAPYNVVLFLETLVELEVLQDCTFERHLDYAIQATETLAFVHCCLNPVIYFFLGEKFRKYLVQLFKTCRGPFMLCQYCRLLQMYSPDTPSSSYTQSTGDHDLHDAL
The data set can be described thus: Antagonist activity at dog CCR4.

Data set [16] in a line: Clearance in rat at 9 umol/kg, po or 3 umol/kg, iv. Type of data set: ADME, organism-based. The note with it: in vivo.
Data set [17] in a line: Clearance in dog at 9 umol/kg, po or 3 umol/kg, iv. Conditions: in vivo. Type of data set: ADME, organism-based, Canis lupus familiaris.
Data set [18] in a line: Volume of distribution at steady state in rat at 9 umol/kg, po or 3 umol/kg, iv. The note with it: in vivo, read-out: Vdss. Format: ADME, organism-based.
A short description of data set [19]: Volume of distribution at steady state in dog at 9 umol/kg, po or 3 umol/kg, iv. Format: ADME, organism-based, Canis lupus familiaris. The note with it: in vivo, read-out: Vdss.
The nature of data set [20]: Half life in rat at 9 umol/kg, po or 3 umol/kg, iv. Format: ADME, organism-based. Conditions: in vivo.
Data set [21] can be described thus: Half life in dog at 9 umol/kg, po or 3 umol/kg, iv. Type of data set: ADME, organism-based, Canis lupus familiaris. The note with it: in vivo.
A short description of data set [22]: Oral bioavailability in rat at 9 umol/kg. Type of data set: ADME, organism-based. The note with it: in vivo.
Data set [23] is described as follows: Oral bioavailability in dog at 9 umol/kg. Format: ADME, organism-based, Canis lupus familiaris. Conditions: in vivo.
Data set [24] has as its target T2, C-C chemokine receptor type 4. The data set can be described thus: Antagonist activity at human CCR4 expressed in HEK cells coexpressing CD4+ assessed as inhibition of CCL22 induced Ca2+ mobilization. Format: functional, cell-based.
Data set [25] deals with T8, C-C chemokine receptor type 4 (Homo sapiens) (UniProt P51679).
T8 sequence (whole entry): T2 sequence (P51679 whole entry)
The data set can be described thus: Agonist activity at CCR4 (unknown origin) up to 10 uM. Type of data set: functional.

Data set [26] in a line: Volume of distribution at steady state in rat. Type of data set: ADME, organism-based. The note with it: in vivo, read-out: Vdss.
Data set [27] can be described thus: Volume of distribution at steady state in mouse. Type of data set: ADME, organism-based. The note with it: in vivo, read-out: Vdss.
Data set [28] can be described thus: Oral bioavailability in rat. Type of data set: ADME, organism-based. Conditions: in vivo.
Data set [29] is described as follows: Oral bioavailability in mouse. Format: ADME, organism-based. Conditions: in vivo.
A short description of data set [30]: Protein binding in rat plasma. Type of data set: ADME, cell-free. The note with it: read-out: PPB (converted).
Data set [31] in a line: Protein binding in mouse plasma. Format: ADME, cell-free. The note with it: read-out: PPB (converted).

≈ marks a conversion by molar mass, not a printed value. Calls of active or inactive are those of the source. The calls are words filed in the database; no cut-off is given here.

C-C chemokine receptor type 2 (Homo sapiens), sequence (P41597 whole entry, looked up): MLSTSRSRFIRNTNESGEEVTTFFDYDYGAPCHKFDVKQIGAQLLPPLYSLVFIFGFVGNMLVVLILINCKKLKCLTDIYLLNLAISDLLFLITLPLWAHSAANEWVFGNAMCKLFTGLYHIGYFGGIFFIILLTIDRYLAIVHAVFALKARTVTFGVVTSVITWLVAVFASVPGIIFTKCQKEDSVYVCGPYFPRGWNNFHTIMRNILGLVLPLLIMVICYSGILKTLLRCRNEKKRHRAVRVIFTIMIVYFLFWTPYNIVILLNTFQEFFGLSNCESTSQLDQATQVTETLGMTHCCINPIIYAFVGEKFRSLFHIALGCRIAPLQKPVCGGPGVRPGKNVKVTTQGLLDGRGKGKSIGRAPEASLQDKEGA
C-C chemokine receptor type 8 (Homo sapiens), sequence (P51685 whole entry): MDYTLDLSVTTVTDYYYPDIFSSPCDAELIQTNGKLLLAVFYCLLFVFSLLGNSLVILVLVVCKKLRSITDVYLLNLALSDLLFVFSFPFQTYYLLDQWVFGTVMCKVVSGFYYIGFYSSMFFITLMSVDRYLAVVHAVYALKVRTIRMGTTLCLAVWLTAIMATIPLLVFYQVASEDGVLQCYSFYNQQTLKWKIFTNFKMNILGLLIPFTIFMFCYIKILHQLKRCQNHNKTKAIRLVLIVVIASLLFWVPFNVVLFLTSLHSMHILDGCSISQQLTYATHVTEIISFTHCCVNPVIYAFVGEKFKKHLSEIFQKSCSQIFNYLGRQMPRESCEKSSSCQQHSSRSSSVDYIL
C-C chemokine receptor type 5 (Homo sapiens), sequence (P51681 whole entry, looked up): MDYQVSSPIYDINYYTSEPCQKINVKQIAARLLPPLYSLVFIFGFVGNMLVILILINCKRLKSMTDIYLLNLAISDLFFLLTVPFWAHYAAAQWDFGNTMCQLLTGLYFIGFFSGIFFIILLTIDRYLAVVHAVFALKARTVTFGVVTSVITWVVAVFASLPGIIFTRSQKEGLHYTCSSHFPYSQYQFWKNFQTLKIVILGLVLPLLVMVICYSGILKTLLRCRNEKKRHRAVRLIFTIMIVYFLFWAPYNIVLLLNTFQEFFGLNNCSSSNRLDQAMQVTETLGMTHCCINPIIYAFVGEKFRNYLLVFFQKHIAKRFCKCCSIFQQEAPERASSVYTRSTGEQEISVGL

Regarding `COc1nc(F)cnc1NS(=O)(=O)c1cccc(Cl)c1Cl`, the fraction unbound in [1] was 0.006. The compound further showed a log distribution coefficient (logD) in [2] of 0.6. This compound returned a solubility in [3] of 1300 µg/mL (≈ 3690 µM). Also, the Stability with Hepatocyte was under 1 uL/ml. For the same compound, in data set [4], the negative-log IC50 (pIC50) is listed as 9. For the same compound, the half-inhibitory concentration (IC50) in [5] is 1 nM; in data set [6], 2.51 nM; in data set [15], 3.16 nM; in data set [24], 3.98 nM. Moreover, the result in [7], in [8], in [9], in [10], in data set [11] and in [12] was inactive. In addition, the result in data set [13] and in [25] was inactive. The logP in data set [14] came out at 3.1. Besides, the values for the clearance in data set [16] and in [17] were 2.3 mL/min/kg and 3.7 mL/min/kg, respectively. The Vd in data set [18] and in data set [19] was 0.2 L/kg each time. Besides, the values for the half-life in [20] and in [21] were 2.5 h and 0.5 h, respectively. Moreover, the bioavailability in data set [22] and in data set [23] was 100% each time.

`COc1nc(Br)cnc1NS(=O)(=O)c1ccc(Cl)s1`: the fraction unbound was under 0.001 in [1], 0.0015 in [30] and 0.033 in data set [31]. Moreover, in data set [2], the logD worked out at 1.1. For the same compound, in data set [3], the solubility was 340 µg/mL (≈ 884 µM). Further, the Vd in data set [26] and in [27] was 0.1 L/kg in each case. Moreover, the bioavailability turned out to be 45% in [28] and 86% in data set [29]. Moreover, the pIC50 in [4] came to 8.3. Further, the results for the half-inhibitory concentration (IC50) in [5] and in data set [6] were 5.01 nM and 63.1 nM, respectively. Further, the result in data set [7], in data set [8], in data set [9], in data set [10], in [11] and in data set [12] was inactive. Also, in data set [13], the result was inactive.
